# From patent US20140088151A1, “ALHYDROXYMETHYL BIARYL BENZOTRIAZOLE DERIVATIVES” (priority 2011, published 2014)
# Target: T1, recombinant human mGluR2 (Homo sapiens, UniProt Q14416)
# T1 construct: expressed in transfected cells
# Experiment: FLIPR Ca2+ mobilization assay, potentiation of mGluR2
# Type: cell-based
# Settings: CHO dhfr- cells expressing human mGluR2 and Gα16, EC20 glutamate (900 nM)
# Procedure: Potencies are determined as follows. The compounds of the present invention may be tested in a fluorescence laser imaging plate reader (FLIPR) based assay. This assay is a common functional assay to monitor Ca^2+ mobilization in whole cells expressing recombinant receptor coupled with a promiscuous G-protein. CHO dhfr− cells stably expressing recombinant human mGluR2 and Gα16 loaded with Fluo-4 AM (Invitrogen, Carlsbad Calif.) are treated with varying concentrations of compounds and the Ca^2+ response is monitored on a FLIPR384 (Molecular Devices, Sunnydale Calif.) for agonist activity. The potentiation response is monitored after a subsequent addition of an EC20 concentration of glutamate (900 nM). The maximum calcium response at each concentration of compound for agonism or potentiation are plotted as dose responses curves fitted with a four parameters logistic equation giving EC50 and Hill coefficient using the iterative non linear curve fitting software program.
# T1 sequence (Q14416 19-872): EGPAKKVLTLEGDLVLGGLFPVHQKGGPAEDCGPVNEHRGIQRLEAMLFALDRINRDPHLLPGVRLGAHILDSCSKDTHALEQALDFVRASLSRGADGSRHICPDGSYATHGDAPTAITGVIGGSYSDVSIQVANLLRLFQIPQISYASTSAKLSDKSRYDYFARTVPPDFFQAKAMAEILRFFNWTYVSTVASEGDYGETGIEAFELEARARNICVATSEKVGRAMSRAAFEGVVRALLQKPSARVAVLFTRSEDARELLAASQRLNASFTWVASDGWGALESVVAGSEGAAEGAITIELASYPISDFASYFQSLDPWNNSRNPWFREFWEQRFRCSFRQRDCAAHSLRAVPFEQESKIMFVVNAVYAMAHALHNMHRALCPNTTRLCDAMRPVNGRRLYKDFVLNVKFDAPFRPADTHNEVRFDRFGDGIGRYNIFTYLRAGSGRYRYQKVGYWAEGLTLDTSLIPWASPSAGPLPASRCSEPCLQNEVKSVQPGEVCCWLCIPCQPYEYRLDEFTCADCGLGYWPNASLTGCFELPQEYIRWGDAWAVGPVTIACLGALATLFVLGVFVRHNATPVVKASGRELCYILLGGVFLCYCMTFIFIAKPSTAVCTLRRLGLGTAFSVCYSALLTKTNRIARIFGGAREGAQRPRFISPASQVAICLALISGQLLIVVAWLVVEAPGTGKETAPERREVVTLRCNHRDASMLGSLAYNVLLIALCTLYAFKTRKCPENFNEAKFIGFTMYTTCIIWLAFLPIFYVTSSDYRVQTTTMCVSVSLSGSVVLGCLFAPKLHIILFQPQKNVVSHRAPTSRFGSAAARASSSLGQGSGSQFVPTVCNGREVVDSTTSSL
row,EC50 [nM],Compound
1,3.9,"OC1CCOc2cc(-c3ccc4c(nnn4CC4CC4)c3C(F)(F)F)ccc21 (centres unmarked) [Example 8, 7-[1-(cyclopropylmethyl)-4-(trifluoromethyl)-1H-benzotriazol-5-yl]-3,4-dihydro-2H-chromen-4-ol]"
2,2.1,"CC(C)(O)c1ccc(-c2ccc3c(nnn3CC3CC3)c2C(F)(F)F)cc1 [Example 7, 2-{4-[1-(cyclopropylmethyl)-4-(trifluoromethyl)-1H-benzotriazol-5-yl]phenyl}propan-2-ol]"

# The next lines start with the molecule.
row,Compound,EC50 [nM]
1,"OCC(O)c1ccc(-c2ccc3c(nnn3CC3CC3)c2C(F)(F)F)c(F)n1 (centres unmarked) [Example 4, 1-{5-[1-(cyclopropylmethyl)-4-(trifluoromethyl)-1H-benzotriazol-5-yl]-6-fluoropyridin-2-yl}ethane-1,2-diol]",130
2,"CC(O)c1ccc(-c2ccc3c(nnn3CC3CC3)c2C(F)(F)F)cc1 (centres unmarked) [Example 5, 1-{4-[1-(cyclopropylmethyl)-4-(trifluoromethyl)-1H-benzotriazol-5-yl]phenyl}ethanol]",8.3
3,"COC(C)c1ccc(-c2ccc3c(nnn3CC3CC3)c2C(F)(F)F)cc1 (centres unmarked) [Example 6, 1-(cyclopropylmethyl)-5-[4-(1-methoxyethyl)phenyl]-4-(trifluoromethyl)-1H-benzotriazole]",31
4,"COC(=O)c1ccc(-c2ccc3c(nnn3CC3CC3)c2C(F)(F)F)c(F)c1 [Example 3, methyl 4-[1-(cyclopropylmethyl)-4-(trifluoromethyl)-1H-benzotriazol-5-yl]-3-fluorobenzoate]",15
5,"OCc1ccc(-c2ccc3c(nnn3CC3CC3)c2C(F)(F)F)c(F)n1 [Example 1, {5-[1-(Cyclopropylmethyl)-4-(trifluoromethyl)-1H-benzotriazol-5-yl]-6-fluoropyridin-2-yl}methanol]",27
6,"OCc1ccc(-c2ccc3c(nnn3CC3CC3)c2C(F)(F)F)cc1 [Example 2, {4-[1-(cyclopropylmethyl)-4-(trifluoromethyl)-1H-benzotriazol-5-yl]phenyl}methanol]",11
